Source: US12686668B2, “Leukotriene synthesis inhibitors” (Naegis Pharmaceuticals Inc., priority 2019, dated 2026)
Like-named read-outs stand apart in the source and are kept apart here.

Key:
[1] = tested on: LTB4 production in MC/9 cells; test: MC/9 HPLC assay, inhibition of LTB4 production; assay type: cell-based; conditions: Mus musculus
How it was run: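 MC/9 cells (3×10^6 in HBSS) pre-incubated 30 min with compound, then stimulated 20 min at room temperature with 1 μM A23187. After methanol quench and C18 solid-phase extraction, LTB4 and LTC4 quantified by HPLC against reference standards; inhibition relative to control samples.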

AA-induced ear edema = test: Arachidonic acid (AA) induced mouse ear edema model; assay type: in vivo, CD-1 mice; conditions: 4 hrs and 1 hr before AA 2 mg/ear, mice; for % Inhibition AA-Induced ear edema (0.3 mg/ear): topical 0.3 mg/ear; for % Inhibition AA-Induced ear edema (1 mg/ear): topical 1 mg/ear
Procedure: One group serves as a control and receives 20 μL of vehicle applied to the pinna of each ear (10 μL to the inside and 10 μL to the outside of the pinna). One or more additional groups serve as test groups. The test compound was applied to the pinna of one ear of the mouse in a 20 μL volume (10 μL to the inside and 10 μL to the outside of the pinna). Test compound or control vehicle (acetone/1% DMSO) was applied topically to the right ear 4 and 1 hour before the application of 2 mg/ear AA as a stimulus to both the inner and outer surfaces of CD-1 mice. The left ears received vehicle (acetone/1% DMSO) alone. The animal was lightly anesthetized again using isofluorane to enable application of the stimulus. For the control group, arachidonic acid (2 mg/ear) was applied as the stimulus to the pinna of one ear only, in a total volume of 20 μL of acetone (10 μL applied to the inside and 10 μL to the outside of the pinna). The other ear received 20 μL of acetone. This served to determine the increase in ear weight due to arachidonic acid in the absence of test compounds. For the test groups, arachidonic acid (2 mg/ear) was applied as the stimulus to the pinna of each ear, in a total volume of 20 μL of acetone (10 μL applied to the inside and 10 μL to the outside of the pinna). The animal was allowed to recover after application of the stimulus in each case. After 60 minutes the animal was euthanized and a standard biopsy sample was taken from each ear using a 6 mm skin biopsy punch (Acuderm). Ear edema was determined by the increase in weight of the tissue due to accumulation of fluid as a result of plasma extravasation. The ears were weighed separately using a balance suitable to record 0.1 mg. For the control group, the difference in ear weights was determined by subtracting the weight of the unstimulated ear from the stimulated ear, and this was a measure of the increase in ear weight due to edema. The percentage increase in ear weight was determined by dividing the increase in stimulated ear weight by the unstimulated ear weight and multiplying by 100. For the test groups, the difference in ear weights was determined by subtracting the weight of the untreated ear from the weight of the ear treated with test compound. The percent inhibition of the increase in ear weight for ears treated with the test compound was estimated by first subtracting the mean ear weight of the untreated controls from each tissue to determine the increase in tissue weight due to application of the arachidonic acid. The percent inhibition=1−(test drug stimulated ear (mg)/control stimulated ear (mg))×100. In Table 5, the data from inhibition of AA-induced ear edema in mice by topical application of compounds is provided. Compounds (0.3 or 1 mg/ear) were applied topically to the ear 4 hrs and 1 hr prior to application of arachidonic acid (AA; 2 mg/ear).

[2] = Rat ocular distribution model, retina after topical drop; assay type: in vivo; conditions: Lewis rats, 10 μL topical drop
Procedure: (§1) Eye drops were prepared by adding compounds at a theoretical concentration of 10 mg/mL to a 2 mL microcentrifuge tube before adding a stir bar and the selected formulation that consisted of (w/v) hydroxypropyl β-cyclodextrin (Trappsol) (20%), hydroxyl propyl methylcellulose (0.5%) and EDTA (1.6 mM) in phosphate buffered saline. Tubes containing compound in eye drop formulation were heated to 60-65° C. and stirred at least 4 hours to overnight. The tubes were removed from the heat bath and centrifuged at 10,000 ref for 5 minutes to clear the solution of any residual drug not in solution. The supernatant was removed from the tubes and one 10 μL sample was removed for HPLC analysis of solubilized by HPLC using an ACE C18 column (4.5 mm×150 mm, 5 m), eluted with acetonitrile/methanol/water mixture with H3PO4, pH 3.5 (50:30:20) with a flow rate of 2.5 mL/min. The solubilized concentration of each compound was calculated by interpolation from a standard curve based on reference standards solubilized in methanol when the assay was validated.
Compounds were applied as a single 10 μL drop to rats and the aqueous humor, and the posterior segment of the eye (vitreous body and retina) were collected from each eye at the time point assigned after the eye was irrigated to remove any residual formulation present. Tissues were collected in pre-weighed collection tubes and the tissue weight was determined for each sample. An internal standard (IS) mixture containing a reference compound at a ratio of 1 μL to 4 mg tissue was added to samples, mixed and then diluted×4.25 in acetonitrile:methanol (9:1). Aqueous humour samples were vortex mixed for 10 s. The vitreous body & retina were vortex mixed 2 times each for 10 s, and further mixed for 6 min on a tabletop shaker at 750 rpm followed by final vortex mixing (10 s). All samples were centrifuged to pellet any particulate matter and the supernatant was transferred to LC vials. A 10 μL sample was then applied to the HPLC during LC/MS/MS analysis. A calibration curve for compounds (0.588-176.471 ng/mL) was prepared in rat plasma to estimate concentrations of compounds in each of the matrices analyzed using the area under curve (AUC) normalized to internal standard AUC for determining response. The assumption was made that 1 mg tissue is equivalent to 1 μL plasma. Concentrations measured in each tissue were then normalized to the amount of drug applied to account for differences in solubilized drug in each formulation. The average concentration and the standard deviation was determined based on “n”=number of eyes assessed, rather than the number of animals. […]

[3] = Solubilized concentration of compound in eye drop formulation (HPLC); assay type: physicochemical; conditions: eye drop formulation: 20% hydroxypropyl β-cyclodextrin, 0.5% HPMC, 1.6 mM EDTA in PBS
Procedure: as §1
In Table 6, the data from distribution studies performed in Lewis rats show the concentration of each compound present in the retina 0.5 hr after the administration of a 10 μL drop of each topical formation is provided. Compounds were paired and individual formulations mixed at a ratio to make a mixture that contained ~2.5 mg/mL of each compound.

[4] = MC9, Table 2 column 4, no concentration in head (1 μM according to b732), read-out: % Inhibition LTB4

Row | Concentration of compound in formulation [3] [µg/mL] | SMILES | inhibition at 1 µM ([1]; MC9, 1 μM, read-out: % inhibition LTB4 (1 μM)) [%] | inhibition at 1 µM [1, 4] [%] | % Inhibition AA-Induced ear edema (0.3 mg/ear) (AA-induced ear edema) | % Inhibition AA-Induced ear edema (1 mg/ear) (AA-induced ear edema) | Concentration of compound in retina 0.5 hr after administration per mg compound applied (Avg ± SD) n = 2 [2]
1 | 2860 | CCC(O)(CCc1ccc(Oc2nc3c(SC)cccc3s2)c(OC)c1)C(F)(F)F (stereo not drawn) [Compound 104, 1-{3-methoxy-4-[(4-methylsulfanyl-1,3-benzothiazol-2-yl)oxy]phenyl}-3-(trifluoromethyl)pentan-3-ol] | 90 | > 90 | 30-50% | 50-70% | 3340 ± 1061 ng/mL per mg compound applied
2 | – | CC(O)(CCc1ccc(OCc2ccc3ccccc3n2)cc1)C(F)(F)F (stereo not drawn) [Compound 183, 1,1,1-trifluoro-2-methyl-4-[4-(quinolin-2-ylmethoxy)phenyl]butan-2-ol] | – | > 90 | 30-50% | >90% | –
